Test in all cases: drug sensitivity score (DSS2, normalised partial AUC of dose-response, 72 h CellTiter-Glo viability) (DSS (dimensionless)); higher = more sensitive (stronger growth inhibition / cytotoxicity); extreme values may be limits of the assay
For orientation: In ATP-based viability assays light output follows the ATP content of the culture.

One test deals with 22Rv1. The gist of the method: (§1)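 Five doses spanning a 10,000-fold range were pre-dispensed into 384-well plates, into which low-passage primary prostate cancer-associated fibroblasts, PF179T, WPMY-1, LNCaP and 22Rv1 cells were seeded. After 72 h, CellTiter-Glo 2.0 luminescence measured viability, scaled to vehicle and positive-control wells. Higher values of the drug sensitivity score, a BREEZE-computed partial area under the fitted logistic dose–response curve divided by the log of the upper asymptote, mean greater sensitivity.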

In another test the test system is CAF#1 (primary prostate cancer-associated fibroblasts of myCAF-like type). The gist of the method: as §1
A further test concerns CAF#2 (primary prostate cancer-associated fibroblasts of iCAF-like type). The method, boiled down:
as §1

A further test deals with CAF#3 (primary prostate cancer-associated fibroblasts of myCAF-like type). The method, boiled down:
as §1

The subject of another test is CAF#4 (primary prostate cancer-associated fibroblasts of iCAF-like type). The gist of the method:
as §1

For another test, the system named is CAF#5 (primary prostate cancer-associated fibroblasts of myCAF-like type). The gist of the method: as §1
For another test, the system named is CAF#6 (primary prostate cancer-associated fibroblasts of iCAF-like type). The gist of the method: as §1
In another test the test system is CAF#7 (primary prostate cancer-associated fibroblasts of myCAF-like type). The method, boiled down: as §1
Another test has as its system LNCAP. The gist of the method:
as §1

The next test deals with PF179T. The method, boiled down:
as §1

For a further test, the system named is WPMY-1. The method, boiled down:
as §1

As to `CN1CCN(CCOc2cc(OC3CCOCC3)c3c(Nc4c(Cl)ccc5c4OCO5)ncnc3c2)CC1` [Saracatinib] (tested concentration range 1-10000 nM), the drug sensitivity score was 4.3 in the test with 22Rv1; 7.7 in the test with CAF#1; 7.7 with CAF#2; 10.1 in the test with CAF#3; 6.7 with CAF#4; 8.2 in the test on CAF#5. Also, the drug sensitivity score in the test with CAF#6 came out at 6.6; with CAF#7, 5.8; with LNCAP it was 6.4; with PF179T, 5.5; in the test with WPMY-1, 5.4.

`CC[C@H](CO)Nc1nc(NCc2ccccc2)c2ncn(C(C)C)c2n1` [Seliciclib] (tested concentration range 1-10000 nM): the drug sensitivity score worked out at 0.2 in the test on 22Rv1; 1.7 in the test with CAF#1; 1.1 with CAF#2; 1.4 with CAF#3; 1.4 with CAF#4; 2 with CAF#5. The drug sensitivity score in the test on CAF#6 was determined as 1.1; in the test with CAF#7, 2.3; in the test with LNCAP, 4.3; in the test with PF179T it was 0; in the test with WPMY-1, 0.6.

As for `O=C(/C=C\n1cnc(-c2cc(C(F)(F)F)cc(C(F)(F)F)c2)n1)NNc1cnccn1` [Selinexor] (tested concentration range 1-10000 nM), the drug sensitivity score in the test on 22Rv1 came to 30.5; with CAF#1, 16.5; with CAF#2, 21.3; in the test with CAF#3, 9.9; in the test on CAF#4, 17.8; in the test with CAF#5 it was 14.6. In addition, the drug sensitivity score in the test with CAF#6 turned out to be 11.7; in the test on CAF#7, 11.9; with LNCAP, 26.2; with PF179T, 16.4; in the test with WPMY-1 it was 27.4.

With `Cc1cc(F)c(C(=O)Nc2cccc(-c3nncn3C(C)C)n2)cc1-n1cnc(C2CC2)c1` [Selonsertib] (tested concentration range 0.1-1000 nM), the drug sensitivity score in the test on 22Rv1, with CAF#1, in the test with CAF#2, with CAF#3, in the test on CAF#4 and with CAF#5 was 0 throughout. Besides, the drug sensitivity score with CAF#6 worked out at 0; with CAF#7, 0; in the test on LNCAP, 1.4; in the test on PF179T, 0; with WPMY-1, 0.

On to `Cn1cnc2c(F)c(Nc3ccc(Br)cc3Cl)c(C(=O)NOCCO)cc21` [Selumetinib] (tested concentration range 1-10000 nM), for which the drug sensitivity score in the test with 22Rv1 was determined as 14.4; with CAF#1 it was 1.2; with CAF#2, 4.5; in the test on CAF#3, 0; in the test with CAF#4 it was 2.5; in the test on CAF#5 it was 1.6. For the same compound, the drug sensitivity score came out at 1.1 in the test on CAF#6; 2.6 in the test with CAF#7; 0 with LNCAP; 2.5 in the test on PF179T; 4.3 with WPMY-1.

In the case of `Nc1nc2cc(-c3ccc4ncc(C(=O)N5CCOCC5)n4c3)ccc2o1` [Serabelisib] (tested concentration range 1-10000 nM), the drug sensitivity score with 22Rv1 was found to be 5.2; with CAF#1, 3.2; in the test on CAF#2, 4.3; in the test on CAF#3, 4.2; in the test on CAF#4 it was 2.1; with CAF#5, 5.7. Moreover, the drug sensitivity score in the test on CAF#6 came to 4.5; with CAF#7 it was 3.4; in the test with LNCAP, 2.3; in the test on PF179T, 2.8; with WPMY-1, 1.2.

`O=C(O)c1ccc2c(c1)nc(Nc1cccc(Cl)c1)c1ccncc12` [Silmitasertib] (tested concentration range 1-10000 nM): the drug sensitivity score in the test with 22Rv1 was 6; in the test on CAF#1, 5.4; in the test with CAF#2, 4; with CAF#3, 0.7; in the test on CAF#4, 2.2; in the test with CAF#5, 4.6. The drug sensitivity score was found to be 0.6 in the test on CAF#6; 1.5 in the test on CAF#7; 3.9 with LNCAP; 2.5 with PF179T; 5.1 in the test on WPMY-1.

Regarding `CO[C@H]1C[C@@H]2CC[C@@H](C)[C@@](O)(O2)C(=O)C(=O)N2CCCC[C@H]2C(=O)O[C@H]([C@H](C)C[C@@H]2CC[C@@H](O)[C@H](OC)C2)CC(=O)[C@H](C)/C=C(\C)[C@@H](O)[C@@H](OC)C(=O)[C@H](C)C[C@H](C)/C=C/C=C/C=C/1C` [Sirolimus] (tested concentration range 0-100 nM), the drug sensitivity score came out at 9.3 in the test on 22Rv1; 6.5 in the test with CAF#1; 6.8 in the test on CAF#2; 2.2 in the test with CAF#3; 4.9 in the test on CAF#4; 7.4 with CAF#5. Also, the drug sensitivity score in the test on CAF#6 was determined as 3.4; in the test with CAF#7, 3.7; in the test on LNCAP, 2.5; in the test with PF179T, 5.6; in the test on WPMY-1, 4.

For the compound `COCCNCc1ccc(-c2cc3nccc(Oc4ccc(NC(=O)C5(C(=O)Nc6ccc(F)cc6)CC5)cc4F)c3s2)nc1` [Sitravatinib] (tested concentration range 0.2-2500 nM), the drug sensitivity score in the test with 22Rv1 turned out to be 4.7; in the test on CAF#1 it was 5.5; with CAF#2, 9.7; in the test on CAF#3 it was 4.5; in the test on CAF#4, 6.6; in the test with CAF#5, 6.6. The drug sensitivity score in the test on CAF#6 is 3.4; in the test with CAF#7, 5.7; in the test on LNCAP it was 2.1; in the test with PF179T, 6.7; in the test on WPMY-1 it was 5.9.

On to `Cc1c(C(=O)Nc2ccc(N3C[C@@H](C)O[C@@H](C)C3)nc2)cccc1-c1ccc(OC(F)(F)F)cc1` [Sonidegib] (tested concentration range 1-10000 nM), for which the drug sensitivity score amounted to 2.2 in the test with 22Rv1; 0 in the test on CAF#1; 1.7 with CAF#2; 0 with CAF#3; 3.2 in the test with CAF#4; 1.5 in the test on CAF#5. Also, the drug sensitivity score was 0 in the test on CAF#6; 0 with CAF#7; 4.9 with LNCAP; 0 in the test with PF179T; 0 in the test with WPMY-1.

`CNC(=O)c1cc(Oc2ccc(NC(=O)Nc3ccc(Cl)c(C(F)(F)F)c3)cc2)ccn1` [Sorafenib] (tested concentration range 0.1-1000 nM): the drug sensitivity score was determined as 0 with 22Rv1; 0 with CAF#1; 0 with CAF#2; 2.6 in the test with CAF#3; 1.2 in the test with CAF#4; 0 in the test with CAF#5. For the same compound, the drug sensitivity score in the test on CAF#6, in the test with CAF#7, in the test with LNCAP, in the test on PF179T and in the test on WPMY-1 was 0 throughout.
